Patent US20140314904A1, “PRE-SLAUGHTER DIET INCLUDING METHIONINE” (ADISSEO FRANCE S.A.S., priority 2011, published 2014)

Assays:
Type in all cases: in vivo, pig
slaughter pigs [1] = assay: Instrumental meat colour (CIE L*a*b*), Example 1; details: LS mean ± SEM
Description: (§1) Twenty-one slaughter pigs ([Yorkshire×Swedish Landrace]×Hampshire) were raised on a commercial diet. Pigs were randomly assigned to one of three groups (n=7). The groups represented three feeding strategies, namely a Control group which received a standardized diet comprising 0.27% total methionine, and both a DLM and HMTBA group, receiving the same diet as the Control group throughout the feeding period, apart from the fact that they were fed a higher level of methionine (1.1% total methionine) during a seven day finishing period immediately prior to slaughter. The supplements were given in two forms, either as D L-methionine (DLM) or DL-2-hydroxy-4-methylthiobutanoic acid (HMTBA).
(§2) Pork chops were cut perpendicular to the long axis of each LD muscle. Six 3 cm thick pork chops was sliced from each LD. Three were vacuum packed and three were packed in a high-oxygen modified atmosphere. The chops were placed in plastic trays (M71-43A white/PS; 195×144×43 mm in dimension; Frch Plast, Denmark) and placed in vacuum bags (EM-628862; O2 transmission rate=40-50 cm^3/m^2/24 h/bar, CO2 transmission rate=150 cm^3/m^2/24 h/bar, water-vapour transmission rate=2.6 g/m^2/24 h; LogiCon Nordic A/S, Denmark). The ambient air was removed from all vacuum bags using a vacuum machine (type, manufacturer, country). The bags intended for […] were first filled with a gas mixture (80% oxygen/20% carbon dioxide) before being sealed completely, whereas the bags intended for MAP were only partially sealed. […] (until 9 days post mortem). The gas composition was checked (CheckMate 9900, PBI Dansensor, Denmark) before packaging and again prior to opening, at the end of the simulated display period in order to check for leakage. The oxygen-enriched environment was well maintained (83.4%) throughout the display period for all MA packages.
Instrumental meat colour was measured with a Minolta Chroma Meter (CR-300; D65 and 2° observer angle, 8 mm diameter measuring area; Minolta, Japan). Before packaging, as described previously, colour recordings of the pork chops was carried out. At the end of the display period, the pork chops were allowed to bloom for at least 30 min at 4±2° C. once they had been removed from the vacuum bags. Colour measurements followed the CIE colour convention, where the three fundamental outputs are L*, a* and b*. L* is lightness on a scale of 0 (all light absorbed; black) to 100 (all light reflected; white); a* spans from +60 (red) to −60 (green) and b* spans from +60 (yellow) to −60 (blue). The saturation index, also known as chroma, was calculated as the square root of a*^2+b*^2 (MacDougall, 1977). Three recordings were made on each pork chop, and the mean value was used for statistical analysis.

pigs [2] = assay: Post mortem pH and temperature in M. longissimus dorsi, Example 2
Description: (§3) The pigs were slaughtered at a commercial slaughter house in Sweden after a resting time of 5 h. At 45 minutes post mortem, pH (Knick portamess 751) and temperature (digital thermometer, Weber) were measured in the M. longissiumus dorsi at the level of the 10th rib. At 48 h post mortem, the entire loins were dissected from the carcasses and transported to the University of Copenhagen for further measurements. Ultimate pH was measured, as well as colour by Minolta L*a*b*. Dry matter content was determined by drying muscle samples at 105° C. for 24 h. Slices of 3 cm thickness were cut, measured and vacuum packed before being stored for a further 7 days at 2° C. At the end of the storage period samples were heated to an internal temperature of 75° C. After being cooled down, samples were stored cold at 2° C. until they were cut into slabs of 1 cm×1 cm×2.5 cm size for shear force measurement. For each animal, 8 specimens were measured and the mean maximum load was used for further analysis.

pigs [3] = assay: Shear force (maximum load) after storage, Example 2; details: 9 days post mortem, P < 0.02
Description: as §3

slaughter pigs [4] = assay: Cooking loss of pork chops; details: 7 days at 2° C., LS mean ± SEM
Description: as §1
Pigs were slaughtered at a commercial slaughter house in Sweden after a resting time of 5 hours. At 45 minutes post mortem, pH (Knick portamess 751 pH-meter with an Ingold LOT glass electrode, Tech Instrumentering ApS, Denmark) and temperature (digital thermometer, Weber, Stephen Nordic, Denmark) were measured in the m. Longissimus dorsi (LD) at the level of the 10th rib. At 48 hours post mortem, the entire back was dissected from the carcass and transported under controlled conditions to the University of Copenhagen for further measurements.
as §2
Storage loss was determined as the weight loss percentage at the end of the display period (9 days post mortem) relative to the weight at the day of packaging (two days post mortem). The cooking loss was determined as the weight loss percentage between the pork chops before and after cooking. The results are given as the mean of the three pork chops in each meat pack.

slaughter pigs [5] = assay: Warner-Bratzler shear force (WBSF), instrumental hardness; details: 7 days at 2° C., LS mean ± SEM
Description: In Example 1 twenty-one pigs were randomly assigned to one of three feeding groups (n=7). The control group received a standardized diet only. The DLM and HMTBA groups received the standardized diet plus a high-methionine supplement (either DLM (i.e. […] At 48 h post mortem, 3 cm thick pork chops were either vacuum packed or sealed in a modified atmosphere (MA; 80% O2) and stored for an additional 7 days at 2° C. Instrumental hardness was measured using the Warner-Bratzler shear force (WBSF; Newton) method. Protein oxidation was measured as the loss of free thiol groups in proteins (nmol thiol per mg protein) using Ellman's reagent. Lipid oxidation was measured as the increase in 2-thiobarbituric acid reactive substances (TBARS; mg malondialdehyde per kg meat). Twenty-one slaughter pigs ([Yorkshire×Swedish Landrace]×Hampshire) were raised on a commercial diet. Pigs were randomly assigned to one of three groups (n=7). […] Pork chops were cut perpendicular to the long axis of each LD muscle. Six 3 cm thick pork chops was sliced from each LD. Three were vacuum packed and three were packed in a high-oxygen modified atmosphere. The chops were placed in plastic trays ([…]-43A white/PS; 195×144×43 mm in dimension; Frch Plast, Denmark) and placed in vacuum bags (EM-628862; […] The ambient air was removed from all vacuum bags using a vacuum machine (type, manufacturer, country). […] (until 9 days post mortem). The gas composition was checked (CheckMate 9900, PBI Dansensor, Denmark) before packaging and again prior to opening, at the end of the simulated display period in order to check for leakage. The oxygen-enriched environment was well maintained (83.4%) throughout the display period for all MA packages. Instrumental hardness was measured using the Warner-Bratzler shear force (WBSF) method. In short, at the end of the display period fresh samples were heated in a water bath in an oven (type, manufacturer, country). The temperature rise was monitored for one sample and the remaining samples were given the time to reach an internal temperature of 75° C. plus five minutes. The samples were cooled down before cores of 1 cm×1 cm×2.5 cm were excised for shear force analysis.

[6] = Initial (2 days post mortem), square root of a*^2+b*^2
[7] = MAP 80% O2/20% CO2 (9 days post mortem)
[8] = Slaughter house, 45 min post mortem

In the case of CSCCC(N)C(=O)O (racemic) [DLM, DL-methionine], the “Light reflection (L*)” value (slaughter pigs [1]; Initial (2 days post mortem)) is reported as 55.75 ± 1.25 ^B, the “Redness (a*)” value (slaughter pigs [1]; Initial (2 days post mortem)) is reported as 6.69 ± 0.58 ^C, D and the “Yellowness (b*)” value (slaughter pigs [1]; Initial (2 days post mortem)) is reported as 2.92 ± 0.46 ^C. The Saturation index (slaughter pigs [1]; [6]) was 7.33 ± 0.67 ^E, the “Redness (a*)” value (slaughter pigs [1]; [7]) was 7.83 ± 0.59 ^A, B, C, D and the Saturation index (slaughter pigs [1]; [7]) was 10.55 ± 0.69 ^A, B, C, D. For the same compound, the “Yellowness (b*)” value (slaughter pigs [1]; [7]) was 7.10 ± 0.49 ^A, B, the pH (pigs [2]; Laboratory, 2 days post mortem) was 5.50 and the Temperature (pigs [2]; [8]) was 39 °C. The pH (pigs [2]; [8]) was 6.10, the “Maximum Load” value (pigs [3]) was 34 N and the Cooking loss (slaughter pigs [4]; MAP (80% O2 + 20% CO2)) was 15.82 ± 1.86 ^A g. For the same compound, the Cooking loss (slaughter pigs [4]; Vacuum) was 21.52 ± 1.86 ^A g, the “Instrumental hardness, WBSF values” (slaughter pigs [5]; MAP (80% O2 + 20% CO2)) was 38.58 ± 3.65 ^A, B N and the “Instrumental hardness, WBSF values” (slaughter pigs [5]; Vacuum) was 28.80 ± 3.65 ^D N.
In the case of CSCCC(O)C(=O)O (racemic) [HMTBA, 2-hydroxy-4-(methylthio) butanoic acid], the “Light reflection (L*)” value (slaughter pigs [1]; Initial (2 days post mortem)) is reported as 56.89 ± 1.25 ^A, B, the “Redness (a*)” value (slaughter pigs [1]; Initial (2 days post mortem)) is reported as 7.58 ± 0.58 ^B, D and the “Yellowness (b*)” value (slaughter pigs [1]; Initial (2 days post mortem)) is reported as 3.71 ± 0.46 ^C. The Saturation index (slaughter pigs [1]; [6]) was 8.46 ± 0.67 ^C, D, E, the “Redness (a*)” value (slaughter pigs [1]; [7]) was 7.43 ± 0.59 ^B, D and the Saturation index (slaughter pigs [1]; [7]) was 9.81 ± 0.69 ^B, C, D, E. The “Yellowness (b*)” value (slaughter pigs [1]; [7]) was 6.35 ± 0.49 ^B, the pH (pigs [2]; Laboratory, 2 days post mortem) was 5.40 and the Temperature (pigs [2]; [8]) was 39 °C. The pH (pigs [2]; [8]) was 6.20, the “Maximum Load” value (pigs [3]) was 37 N and the Cooking loss (slaughter pigs [4]; MAP (80% O2 + 20% CO2)) was 18.49 ± 1.73 ^A g. For the same compound, the Cooking loss (slaughter pigs [4]; Vacuum) was 21.35 ± 1.73 ^A g, the “Instrumental hardness, WBSF values” (slaughter pigs [5]; MAP (80% O2 + 20% CO2)) was 43.64 ± 3.65 ^A, B N and the “Instrumental hardness, WBSF values” (slaughter pigs [5]; Vacuum) was 30.55 ± 3.65 ^C, D N.
